{"source": "ChEMBL document CHEMBL1130569", "about": "“pH Dependence of the rate of DNA alkylation for (+)-duocarmycin SA and (+)-CCBI-TMI” (Bioorg Med Chem Lett, 1997)", "key": {"Nucleic Acid [1]": {"tested_on": "Nucleic Acid", "experiment": "Compound was evaluated for relative rate constant for alkylation of the single high affinity site in w794 DNA at pH 7.5.", "type": "nucleic-acid assay"}, "[2]": {"experiment": "Compound was evaluated for first-order rate constant for acid-catalyzed solvolysis at pH 7.6", "type": "ADME"}, "[3]": {"experiment": "Half-life period for acid-catalyzed solvolysis, was determined at pH 3", "type": "ADME"}, "Nucleic Acid [4]": {"tested_on": "Nucleic Acid", "experiment": "Compound was evaluated for relative rate constant for alkylation of the single high affinity site in w794 DNA at the 8.1 pH points at 25 degrees Centigrade.", "type": "nucleic-acid assay"}, "Nucleic Acid [5]": {"tested_on": "Nucleic Acid", "experiment": "Compound was evaluated for relative rate constant for alkylation of the single high affinity site in w794 DNA at the 6.0 pH points at 25 degrees Centigrade.", "type": "nucleic-acid assay"}, "Nucleic Acid [6]": {"tested_on": "Nucleic Acid", "experiment": "Compound was evaluated for relative rate constant for alkylation of the single high affinity site in w794 DNA at the 7.1 pH points at 25 degrees Centigrade.", "type": "nucleic-acid assay"}, "Nucleic Acid [7]": {"tested_on": "Nucleic Acid", "experiment": "Compound was evaluated for pseudo first-order rate constant for alkylation of the single high affinity site in w794 DNA at the 8.0 pH points at 25 degrees Centigrade.", "type": "nucleic-acid assay"}, "Nucleic Acid [8]": {"tested_on": "Nucleic Acid", "experiment": "Compound was evaluated for relative rate constant for alkylation of the single high affinity site in w794 DNA at the 7.6 pH points at 25 degrees Centigrade.", "type": "nucleic-acid assay"}, "[9]": {"experiment": "Half-life period for DNA alkylation, was determined", "type": "ADME"}, "Nucleic Acid [10]": {"tested_on": "Nucleic Acid", "experiment": "Compound was evaluated for pseudo first-order rate constant for alkylation of the single high affinity site in w794 DNA at the 7.6 pH points at 25 degrees Centigrade.", "type": "nucleic-acid assay"}, "Nucleic Acid [11]": {"tested_on": "Nucleic Acid", "experiment": "Compound was evaluated for relative rate constant for alkylation of the single high affinity site in w794 DNA at the 6.6 pH points at 25 degrees Centigrade.", "type": "nucleic-acid assay"}, "Nucleic Acid [12]": {"tested_on": "Nucleic Acid", "experiment": "Compound was evaluated for pseudo first-order rate constant for alkylation of the single high affinity site in w794 DNA at the 6.1 pH points at 25 degrees Centigrade.", "type": "nucleic-acid assay"}, "Nucleic Acid [13]": {"tested_on": "Nucleic Acid", "experiment": "Compound was evaluated for pseudo first-order rate constant for alkylation of the single high affinity site in w794 DNA at the 6.8 pH points at 25 degrees Centigrade.", "type": "nucleic-acid assay"}, "Nucleic Acid [14]": {"tested_on": "Nucleic Acid", "experiment": "Compound was evaluated for relative rate constant for alkylation of the single high affinity site in w794 DNA at pH 7.5 using 10 mM Tris buffers.", "type": "nucleic-acid assay"}, "Nucleic Acid [15]": {"tested_on": "Nucleic Acid", "experiment": "Compound was evaluated for relative rate constant for alkylation of the single high affinity site in w794 DNA at the 6.1 pH points at 25 degrees Centigrade.", "type": "nucleic-acid assay"}, "Nucleic Acid [16]": {"tested_on": "Nucleic Acid", "experiment": "Compound was evaluated for relative rate constant for alkylation of the single high affinity site in w794 DNA at pH 7.5 10 mM NaH2PO4-Na2HPO4, 1 mM EDTA buffers.", "type": "nucleic-acid assay"}, "Nucleic Acid [17]": {"tested_on": "Nucleic Acid", "experiment": "Compound was evaluated for relative rate constant for alkylation of the single high affinity site in w794 DNA at pH 7.5 using 10 mM Tris, 1 mM EDTA buffers", "type": "nucleic-acid assay"}, "Nucleic Acid [18]": {"tested_on": "Nucleic Acid", "experiment": "Compound was evaluated for relative rate constant for alkylation of the single high affinity site in w794 DNA at the 6.8 pH points at 25 degrees Centigrade.", "type": "nucleic-acid assay"}, "Nucleic Acid [19]": {"tested_on": "Nucleic Acid", "experiment": "Compound was evaluated for relative rate constant for alkylation of the single high affinity site in w794 DNA at the 8.0 pH points at 25 degrees Centigrade.", "type": "nucleic-acid assay"}, "Nucleic Acid [20]": {"tested_on": "Nucleic Acid", "experiment": "Compound was evaluated for relative rate constant for alkylation of the single high affinity site in w794 DNA at 10 mM NaH2PO4-Na2HPO4 buffers.", "type": "nucleic-acid assay"}}, "note": "Several values for one entry are separate records, joined by “and”; a condition that tells them apart may be missing. Equal entries are not always repeated."}
{"smiles": "COc1cc2cc(C(=O)N3C[C@H]4C[C@@]45C3=CC(=O)c3ccccc35)[nH]c2c(OC)c1OC", "values": [{"measurement": "Krel", "setting": "Nucleic Acid [1]", "value": 1}]}
{"smiles": "N#Cc1ccc2c(c1)[C@@]13C[C@@H]1CN(C(=O)c1cc4cc(NC(=O)c5cc6ccccc6[nH]5)ccc4[nH]1)C3=CC2=O", "values": [{"measurement": "Krel", "setting": "Nucleic Acid [1]", "value": 2.5}]}
{"smiles": "O=C(Nc1ccc2[nH]c(C(=O)N3C[C@H]4C[C@@]45C3=CC(=O)c3ccccc35)cc2c1)c1cc2ccccc2[nH]1", "values": [{"measurement": "Krel", "setting": "Nucleic Acid [1]", "value": 1}]}
{"smiles": "COc1ccc2c(c1)[C@@]13C[C@@H]1CN(C(=O)OC(C)(C)C)C3=CC2=O", "values": [{"measurement": "k", "setting": "[2]", "value": "1.75e-06", "unit": "s⁻¹"}]}
{"smiles": "COc1ccc2c(c1)[C@@]13C[C@@H]1CN(C(=O)c1cc4cc(OC)c(OC)c(OC)c4[nH]1)C3=CC2=O", "values": [{"measurement": "Krel", "setting": "Nucleic Acid [1]", "value": 1.9}]}
{"smiles": "CC(C)(C)OC(=O)N1C[C@H]2C[C@@]23C1=CC(=O)c1ccc(C#N)cc13", "values": [{"measurement": "k", "setting": "[2]", "value": "9.9e-07", "unit": "s⁻¹"}]}
{"smiles": "CC(C)(C)OC(=O)N1C[C@H]2C[C@@]23C1=CC(=O)c1ccccc13", "values": [{"measurement": "k", "setting": "[2]", "value": "1.45e-06", "unit": "s⁻¹"}]}
{"smiles": "COC(=O)c1cc2c([nH]1)C(=O)C=C1N(C(=O)OC(C)(C)C)C[C@H]3C[C@]123", "values": [{"measurement": "k", "setting": "[2]", "value": "1.08e-06", "unit": "s⁻¹"}, {"measurement": "T1/2", "setting": "[3]", "value": 177, "unit": "h"}]}
{"smiles": "COc1ccc2c(c1)[C@@]13C[C@@H]1CN(C(=O)c1cc4cc(NC(=O)c5cc6ccccc6[nH]5)ccc4[nH]1)C3=CC2=O", "values": [{"measurement": "Krel", "setting": "Nucleic Acid [1]", "value": 1.4}]}
{"smiles": "COC(=O)c1cc2c([nH]1)C(=O)C=C1N(C(=O)c3cc4cc(OC)c(OC)c(OC)c4[nH]3)C[C@H]3C[C@]123", "note": "[DUOCARMYCIN]", "values": [{"measurement": "Krel", "setting": "Nucleic Acid [4]", "value": 1}, {"measurement": "Krel", "setting": "Nucleic Acid [5]", "value": 1.89}, {"measurement": "Krel", "setting": "Nucleic Acid [6]", "value": 1.12}, {"measurement": "k obs", "setting": "Nucleic Acid [7]", "value": "0.000158 s⁻¹ and 0.00015 s⁻¹"}, {"measurement": "Krel", "setting": "Nucleic Acid [1]", "value": 0.9}, {"measurement": "Krel", "setting": "Nucleic Acid [8]", "value": 1.05}, {"measurement": "T1/2", "setting": "[9]", "value": 1.2, "unit": "years"}, {"measurement": "k obs", "setting": "Nucleic Acid [10]", "value": 0.000169, "unit": "s⁻¹"}, {"measurement": "Krel", "setting": "Nucleic Acid [11]", "value": 1.32}, {"measurement": "k", "setting": "[2]", "value": "2.7e-11", "unit": "s⁻¹"}, {"measurement": "k obs", "setting": "Nucleic Acid [12]", "value": 0.000283, "unit": "s⁻¹"}, {"measurement": "k obs", "setting": "Nucleic Acid [13]", "value": 0.000199, "unit": "s⁻¹"}]}
{"smiles": "COc1cc2cc(C(=O)N3C[C@H]4C[C@@]45C3=CC(=O)c3ccc(C#N)cc35)[nH]c2c(OC)c1OC", "values": [{"measurement": "Krel", "setting": "Nucleic Acid [14]", "value": 1.74}, {"measurement": "k obs", "setting": "Nucleic Acid [7]", "value": 0.000278, "unit": "s⁻¹"}, {"measurement": "Krel", "setting": "Nucleic Acid [1]", "value": 2.5}, {"measurement": "Krel", "setting": "Nucleic Acid [8]", "value": 1.2}, {"measurement": "Krel", "setting": "Nucleic Acid [15]", "value": 2.55}, {"measurement": "Krel", "setting": "Nucleic Acid [16]", "value": 1}, {"measurement": "k obs", "setting": "Nucleic Acid [10]", "value": 0.000336, "unit": "s⁻¹"}, {"measurement": "Krel", "setting": "Nucleic Acid [17]", "value": 1.51}, {"measurement": "k", "setting": "[2]", "value": "2.5e-11", "unit": "s⁻¹"}, {"measurement": "k obs", "setting": "Nucleic Acid [12]", "value": 0.000706, "unit": "s⁻¹"}, {"measurement": "k obs", "setting": "Nucleic Acid [13]", "value": 0.000417, "unit": "s⁻¹"}, {"measurement": "Krel", "setting": "Nucleic Acid [18]", "value": 1.5}, {"measurement": "Krel", "setting": "Nucleic Acid [19]", "value": 1}, {"measurement": "Krel", "setting": "Nucleic Acid [20]", "value": 1.05}]}
